# Data taken from article PMC10948969 (Nature cancer, 2023).
# Tests used:
# [1] = test system: MYC-Tp53 tumor organoid allografts; assay: MYC-Tp53 tumor organoid allografts in C57BL/6 mice; format: in vivo, mouse; conditions: 30 mg kg−1 daily oral gavage, treatment from 100 mm3
# [2] = test system: CTNNB1-mutated HCC (MYC-lucOS; CTNNB1); assay: Hydrodynamic tail-vein; format: in vivo, mouse; conditions: 5 d on and 2 d off
# [3] = Single-dose oral pharmacokinetics in BALB/c mice; format: in vivo, mouse
# [4] = test system: KIT, PDGFRα/β, VEGFR1/2, RET and FLT3; assay: Kinome profiling; format: binding; conditions: in vitro kinome selectivity profile
# [5] = test system: WNT reporter (TOP-GFP); assay: TOP-GFP Wnt reporter in MYC-CTNNB1 organoids; format: cell-based, mouse; conditions: 24 h after treatment
# [6] = In vivo dose escalation / tolerability in mice
# [7] = test system: HEPG2 cells; assay: Drug toxicity; format: cell-based, human; conditions: 3 d
# [8] = biological target: ERK1 (Homo sapiens, UniProt P27361); assay: In vitro kinase assay with EZH2 T367 peptide, ERK; format: biochemical; conditions: inhibitor 1 μM, EZH2 peptide 1 μM
# [9] = test system: MYC-CTNNB1 tumor organoid allografts; assay: MYC-CTNNB1 tumor organoid allografts in C57BL/6 mice; format: in vivo, mouse; conditions: 30 mg kg−1 daily oral gavage, treatment from 100 mm3
# [10] = biological target: p38 (MAPK14) (Homo sapiens, UniProt Q16539); assay: In vitro kinase assay with EZH2 T367 peptide, p38; format: biochemical; conditions: inhibitor 1 μM, EZH2 peptide 1 μM
# [11] = test system: MYC-CTNNB1 tumor organoids; assay: Drug toxicity; format: cell-based, mouse
# Chain of p38 (MAPK14) (Q16539 whole entry): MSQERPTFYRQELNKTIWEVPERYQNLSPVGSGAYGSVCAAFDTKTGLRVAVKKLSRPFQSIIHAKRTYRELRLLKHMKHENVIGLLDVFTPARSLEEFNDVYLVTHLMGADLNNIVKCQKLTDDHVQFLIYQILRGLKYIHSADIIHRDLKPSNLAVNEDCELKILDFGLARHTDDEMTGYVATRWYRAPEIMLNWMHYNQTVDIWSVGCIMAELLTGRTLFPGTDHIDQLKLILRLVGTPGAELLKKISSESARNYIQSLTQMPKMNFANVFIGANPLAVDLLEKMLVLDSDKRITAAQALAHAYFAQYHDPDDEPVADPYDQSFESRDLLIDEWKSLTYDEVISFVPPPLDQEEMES
# Chain of ERK1 (P27361 whole entry): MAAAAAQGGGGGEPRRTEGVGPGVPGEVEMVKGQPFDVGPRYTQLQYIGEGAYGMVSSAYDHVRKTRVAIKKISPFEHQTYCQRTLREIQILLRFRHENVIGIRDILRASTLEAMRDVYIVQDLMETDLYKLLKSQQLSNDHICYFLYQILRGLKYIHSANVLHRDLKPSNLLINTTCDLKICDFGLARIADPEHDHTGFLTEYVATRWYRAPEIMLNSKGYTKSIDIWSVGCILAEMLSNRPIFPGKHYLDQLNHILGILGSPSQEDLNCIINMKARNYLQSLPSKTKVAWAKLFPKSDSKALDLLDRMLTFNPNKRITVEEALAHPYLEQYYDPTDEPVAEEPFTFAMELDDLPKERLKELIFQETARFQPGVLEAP
smiles,measurement,setting,value
COc1cc2nccc(Oc3ccc(NC(=O)NC4CC4)c(Cl)c3)c2cc1C(N)=O [lenvatinib],anti-tumor activity,[1],measurable anti-tumor activity
"CNC(=O)c1cc(Oc2ccc(NC(=O)Nc3ccc(Cl)c(C(F)(F)F)c3)cc2)ccn1 [sorafenib, reference compound]",survival benefit,"[2]; 30 mg kg−1 oral, started 7 d post-injection",7.5 days
same,half-life,"[3]; female, BALB/c, mouse, plasma, po, 20 mg/kg",8 h
same,anti-tumor activity,[1],measurable anti-tumor activity
CNC(=O)c1cc(Oc2ccc(NC(=O)Nc3ccc(C(F)(F)C(F)(F)F)cc3)c(F)c2)ccn1 [WNTinib],inhibition of proposed key targets of sorafenib and regorafenib,[4],maintained potent inhibition
same,WNT-driven GFP reporter expression,[5],the only compound to downregulate WNT-driven GFP expression
same,phenotype on extended treatment,"[6]; mice treated for >3 weeks, consistent with on-target KIT inhibition",fur depigmentation
same,signs of sickness or toxicity,"[6]; three mouse strains, dosed daily for 2 weeks, oral dose escalation","No mice showed signs of sickness, or evident toxicity in the liver, intestine or kidney"
same,survival of remaining animals after the final dosing,[2]; 20 mg kg−1 oral,> 300 days
same,fraction of treatment arm that succumbed to death,"[2]; 20 mg kg−1 oral, started 7 d post-injection",40%
same,efficacy with drug-resistant p38α (Thr106Met) or BRAF (Thr529Asn),[7]; HEPG2 transduced with gatekeeper mutants vs parental,largely unchanged
same,activity under MEK overexpression,"[7]; constitutively active MEK1 (Ser218Asp, Ser222Asp) in HEPG2",effectively eliminated WNTinib activity
same,shift of IC50 by MKK6 overexpression,"[7]; constitutively active MKK6 (Ser207Glu, Thr211Glu) vs parental HEPG2",~ 30 fold
same,efficacy under activated KIT overexpression,[7]; doxycycline-inducible activated KIT double mutant in HEPG2,greatly reduced
same,inhibition of EZH2 Thr367 peptide phosphorylation by ERK,[8],did not inhibit this phosphorylation in vitro
same,tumor regression,[9],induced significant tumor regression
same,plasma concentration,"[3]; 24 h after oral dosing, 20 mg kg−1, BALB/c mice",7 µM
same,half-life,"[3]; BALB/c mice, oral, 20 mg kg−1",9.38 h
same,detectable quantities of drug in blood plasma post-dosing,"[3]; oral, 20 mg kg−1",up to 72 h
same,inhibition of EZH2 Thr367 peptide phosphorylation by p38,[10],did not inhibit this phosphorylation in vitro
same,anti-tumor activity,[1],inactive
same,IC50,"[11]; read-out: IC50 in MYC-CTNNB1 organoids, without cKit knockdown, treated 3 d",< 1 µM
same,combination index (CI) with dabrafenib,"[11]; titration of BRAF inhibitor dabrafenib, 3 d, CI > 1 = antagonized",> 1
same,combination index (CI) with SCF,"[11]; titration of KIT ligand SCF, 3 d, CI >1 = antagonized",> 1
same,combination index (CI) with SB202190,"[11]; titration of p38α/β inhibitor SB202190, 3 d, CI > 1 = antagonized",> 1
CNC(=O)c1cc(Oc2ccc(NC(=O)Nc3ccc(Cl)c(C(F)(F)F)c3)c(F)c2)ccn1 [regorafenib],anti-tumor activity,[1],measurable anti-tumor activity
Cc1cc(C)c(CNC(=O)c2cc(-c3ccc(N4CCN(CCNC(=O)CC56CC7CC(CC(C7)C5)C6)CC4)nc3)cc3c2cnn3C(C)C)c(=O)[nH]1 [MS1943],WNT-driven GFP reporter expression,[5],neither small molecule (MS1943 or GSK343) dampened the expression of the WNT reporter
CCCc1cc(C)[nH]c(=O)c1CNC(=O)c1cc(-c2ccnc(N3CCN(C)CC3)c2)cc2c1cnn2C(C)C [GSK343],WNT-driven GFP reporter expression,[5],neither small molecule (MS1943 or GSK343) dampened the expression of the WNT reporter
